Experimental data: patent publication US20210283163A1, “COMPOSITIONS AND METHODS FOR THE TREATMENT OF ACUTE AND CHRONIC PRURITIS” (Duke University, priority 2018, published 2021)

Legend:
mTRPA1 mutants (M1-M13) = assay: Whole-cell patch clamp in CHO cells transfected with mutant mTrpa1 cDNAs (M1-M13); format: cell-based, mouse; conditions: for effect of mutations on induced currents: M2, M3, M4, M5, and M10; for induced currents in mutants: mutants M1, M6, M7, M8, M9, and M12, AITC 50 μM, miR-711 10 μM
Description: (§1) Constructs. The cDNAs of mouse pcDNA3.1-Trpa1, pcDNA3.1-Trpv1, pcDNA3.1-Trpv2, pcDNA3.1-Trpv3, and pcDNA3.1-Trpv4 were kindly provided Dr. Sun Work Hwang from Korea University. Mouse Trpa1 cDNA was subcloned into pCGN-HA backbone (Addgene) using In-Fusion HD Cloning Kit (Clontech Laboratories, CA). Q5 Site-Directed Mutagenesis Kit was used to generate mTrpa1 mutant (M1-M13) based on pCGN-mTrpa1.
(§2) Cell Culture and Transfection. CD4^+ Myla cell line was cultured in RPMI 1640 media (GIBCO), supplemented with 2 mM Glutamine (GIBCO), 100 U/mL IL-2 (Sigma), 100 U/mL IL-4 (Sigma), and 10% human AB serum (Sigma). HuT 102 cell line was cultured in RPMI 1640 supplemented with pyruvate, HEPES, and 10% (v/v) fetal bovine serum (HyClone). HEK293-hTRPA1 stable cell line was cultured in MEM (GIBCO) containing 2 mM Glutamine, 4 μg/mL Blasticidin, 10% FBS (v/v). B16 and CHO cells were cultured in high glucose (4.5 g/L) Dulbecco's Modified Eagle's Medium (GIBCO) containing 10% (v/v) fetal bovine serum (GIBCO). Culture media were supplemented with 50 units/mL of penicillin and 50 μg/mL streptomycin, and cultures were maintained with 5% CO2 in 37° C. incubator. Transfection (2 μg cDNA) was performed with Lipofectamine™ 2000 Reagent (Invitrogen) at 80% confluency and the transfected cells were cultured in the same media for 48 hr before electrophysiological and biochemical studies.
Whole-Cell Patch Clamp Recordings in HEK293 Cells, CHO Cells, and DRG Neurons. Whole-cell patch clamp recordings were performed at room temperature using an Axopatch-200B amplifier (Axon Instruments) with a Digidata 1440B (Axon Instruments). In this study, we only examined small-diameter mouse DRG neurons (<25 μM) and small-diameter human DRG neurons (<55 μM). The patch pipettes were pulled from borosilicate capillaries (World Precision Instruments) using a P-97 Flaming/Brown micropipette puller (Sutter Instrument). Pipette resistance was 4-6 MΩ for whole-cell and outside-out recording. For inward current recordings in mouse and human DRG neurons, HEK293 cells, and CHO cells, the internal solution contains (in mM): 140 CsCl, 10 EGTA, 10 HEPES, and 2 Mg-ATP, adjusted to pH 7.3 with CsOH. Whole cell recordings were performed in an extracellular solution that contains (in mM): 140 NaCl, 5 KCl, 2 MgCl2, 10 HEPES, and 10 glucose, adjusted to pH 7.4 with NaOH and osmolarity to 300-310 mOsm. […] Action potential recordings were performed in small-diameter DRG neurons, with the following solutions: i) internal pipette solution contains: 126 mM K-gluconate, 10 mM NaCl, 1 mM MgCl2, 10 mM EGTA, 10 mM HEPES and 2 mM Na-ATP, adjusted to pH 7.4 with KOH and osmolarity to 295-300 mOsm), and ii) extracellular solution contains: 140 mM NaCl, 5 mM KCl, 2 mM MgCl2, 2 mM CaCl2, 10 mM HEPES, 10 mM glucose, adjusted to pH 7.4 with KOH.

mice [1] = assay: Back model: intradermal nape injection, scratching; format: in vivo, mouse; conditions: 0.01-1 mM, 10 μL
Description: (§3) Behavioral Assessment for Scratching (Itch) and Wiping (Pain). Mice were shaved on the cheek or nape after a brief anesthesia with isoflurane. Before experiments, mice were habituated in small plastic chambers (14×18×12 cm) daily for two days. The room temperature and humidity remained stable for all the experiments. […] After the injection, the number of scratches in 60 min was counted. A scratch was counted when a mouse lifted its hind paw to scratch the shaved region and returned the paw to the floor or to the mouth. A bout of wiping was defined as a continuous wiping movement with a forepaw directing at the area of the injection area (Shimada and LaMotte, Pain 2008, 139, 681-687). Scratching and wiping behavior was videoed for 30 min or 60 min using Sony HDR-CX610 camera. The video was subsequently played back offline and the numbers of scratches and wipes were quantified in a blinded manner.

TRPV1 = biological target: T1, TRPV1 (Mus musculus, UniProt Q704Y3); assay: Whole-cell patch clamp in CHO cells transfected with mouse Trpv1 cDNA; format: cell-based; conditions: miR-711 10 μM; capsaicin 50 nM
T1 construct: expressed in transfected cells; host or cells: CHO cells (ATCC CRL-9096), plasmid pcDNA3.1-mTrpv1, a gift from Korea University
Description: as §1
as §2, with “studies. […]” for “studies.”

TRPV3 = biological target: T2, TRPV3 (Mus musculus, UniProt Q8K424); assay: Whole-cell patch clamp in CHO cells transfected with mouse Trpv3 cDNA; format: cell-based; conditions: miR-711 10 μM; carvacrol 300 μM
T2 construct: expressed in transfected cells; host or cells: CHO cells (ATCC CRL-9096), plasmid pcDNA3.1-mTrpv3, a gift from Korea University
T2 sequence (Q8K424 1-791): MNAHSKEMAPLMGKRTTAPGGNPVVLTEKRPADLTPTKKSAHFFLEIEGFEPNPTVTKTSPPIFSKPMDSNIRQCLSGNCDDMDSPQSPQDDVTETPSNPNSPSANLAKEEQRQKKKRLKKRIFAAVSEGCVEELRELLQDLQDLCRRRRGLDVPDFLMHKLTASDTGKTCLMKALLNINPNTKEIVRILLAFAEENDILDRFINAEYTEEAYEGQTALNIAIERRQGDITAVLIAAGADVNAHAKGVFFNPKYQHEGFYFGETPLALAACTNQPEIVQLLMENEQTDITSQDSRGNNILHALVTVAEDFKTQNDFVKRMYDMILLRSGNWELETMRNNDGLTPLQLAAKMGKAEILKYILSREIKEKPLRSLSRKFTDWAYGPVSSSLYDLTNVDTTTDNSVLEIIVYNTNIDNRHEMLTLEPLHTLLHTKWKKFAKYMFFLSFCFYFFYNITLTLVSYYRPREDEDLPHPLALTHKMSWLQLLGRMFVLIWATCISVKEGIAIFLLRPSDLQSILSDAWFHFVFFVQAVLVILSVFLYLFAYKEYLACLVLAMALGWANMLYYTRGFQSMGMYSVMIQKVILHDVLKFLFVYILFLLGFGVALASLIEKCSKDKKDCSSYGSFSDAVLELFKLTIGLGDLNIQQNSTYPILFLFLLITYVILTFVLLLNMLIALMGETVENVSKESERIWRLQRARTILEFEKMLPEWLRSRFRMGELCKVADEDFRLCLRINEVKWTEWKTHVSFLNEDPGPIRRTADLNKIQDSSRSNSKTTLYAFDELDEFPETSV
Description: as §1
as §2, with “studies. […]” for “studies.”

mice [2] = assay: Acute pruritus induced by intradermal pruritogens, effect of peptides; format: in vivo, mouse; conditions: peptide 2 mM
Description: as §3

T1 sequence (Q704Y3 whole entry): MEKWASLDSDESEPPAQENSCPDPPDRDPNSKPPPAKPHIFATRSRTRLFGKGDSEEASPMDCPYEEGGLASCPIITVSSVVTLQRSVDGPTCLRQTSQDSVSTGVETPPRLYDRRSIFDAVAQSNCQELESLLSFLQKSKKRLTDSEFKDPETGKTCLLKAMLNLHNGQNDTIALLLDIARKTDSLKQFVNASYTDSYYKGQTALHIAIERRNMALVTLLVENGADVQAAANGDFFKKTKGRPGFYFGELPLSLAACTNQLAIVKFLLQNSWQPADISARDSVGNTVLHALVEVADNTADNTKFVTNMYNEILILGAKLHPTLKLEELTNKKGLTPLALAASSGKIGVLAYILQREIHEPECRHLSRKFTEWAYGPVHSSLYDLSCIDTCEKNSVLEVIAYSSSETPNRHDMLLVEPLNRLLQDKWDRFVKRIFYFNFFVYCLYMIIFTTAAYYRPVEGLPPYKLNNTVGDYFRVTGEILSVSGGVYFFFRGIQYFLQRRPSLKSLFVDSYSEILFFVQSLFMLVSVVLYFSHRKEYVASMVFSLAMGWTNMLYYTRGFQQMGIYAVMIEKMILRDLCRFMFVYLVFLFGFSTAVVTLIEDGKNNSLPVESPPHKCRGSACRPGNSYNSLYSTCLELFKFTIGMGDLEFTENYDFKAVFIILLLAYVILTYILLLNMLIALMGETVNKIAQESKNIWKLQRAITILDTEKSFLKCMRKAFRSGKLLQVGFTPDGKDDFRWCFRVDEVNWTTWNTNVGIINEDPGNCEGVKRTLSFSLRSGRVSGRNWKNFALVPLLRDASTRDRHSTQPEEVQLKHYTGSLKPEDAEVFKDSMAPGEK

Row | Molecule | AITC-induced currents in mutants (mTRPA1 mutants (M1-M13); M2, M3, M4, M5, M10, M11, and M13) | effect of mutations on induced currents (mTRPA1 mutants (M1-M13)) | induced currents in mutants (mTRPA1 mutants (M1-M13)) | scratching after intradermal injection on the nape of neck (mice [1]) | inward currents (TRPV1) | inward currents (TRPV3) | effect on miR-711-induced pruritus (mice [2]; 15 μL intradermal, mmu-miR-711 1 mM, 10 μL) | effect on acute itch induced by compound 48/80 (mice [2]; 15 μL, 48/80 50 μg/10 μL) | effect on acute itch induced by chloroquine (mice [2]; 15 μL, CQ 100 μg/10 μL)
1 | C=CCN=C=S [AITC] | unaltered | no effects | substantial reductions | – | – | – | – | – | –
2 | miR-711: mmu-miR-711: gggacccggggagagauguaag (SEQ ID NO: 5) (GGGACCCGGGGAGAGAUGUAAG; chemistry not given here) | – | no effects | substantial reductions | dose-dependent scratching | failed to trigger inward currents | failed to trigger inward currents | – | – | –
3 | NH2-FRNELAYPVLTFGQL-COOH (H-FRNELAYPVLTFGQL-OH) [blocking peptide] | – | – | – | – | – | – | prevented | no effect | no effect
